Experimental data taken from patent publication US11584747B2, “Substituted pyridopyrimidinonyl compounds useful as T cell activators” (BRISTOL-MYERS SQUIBB COMPANY, priority 2019, dated 2023).
Read-outs that look alike come from different tables or passages of the source.

Columns and labels:
[1] = system: human venous whole blood (IFN-γ); assay: Human whole blood IFN-γ assay; format: cell-based
Experimental: Human venous whole blood (22.5 μL per well), obtained from healthy donors, was pre-treated with compounds for one hour at 37° C. in a humidified 95% air/5% CO2 incubator. The blood was stimulated with 2.5 μL anti-human CD3 and anti-CD28 mAb at a final concentration of 1 μg/mL each for 24 hours at 37° C. IFN-γ in the supernatants was measured using AlphLISA kit (Cat #AL217).

[2] = target: human DGKα (Homo sapiens (Human), UniProt P23743); assay: DGKα LIPGLO assay (extruded liposome substrate, ADP-Glo luminescence); format: biochemical
Chain of human DGKα (P23743 whole entry, looked up): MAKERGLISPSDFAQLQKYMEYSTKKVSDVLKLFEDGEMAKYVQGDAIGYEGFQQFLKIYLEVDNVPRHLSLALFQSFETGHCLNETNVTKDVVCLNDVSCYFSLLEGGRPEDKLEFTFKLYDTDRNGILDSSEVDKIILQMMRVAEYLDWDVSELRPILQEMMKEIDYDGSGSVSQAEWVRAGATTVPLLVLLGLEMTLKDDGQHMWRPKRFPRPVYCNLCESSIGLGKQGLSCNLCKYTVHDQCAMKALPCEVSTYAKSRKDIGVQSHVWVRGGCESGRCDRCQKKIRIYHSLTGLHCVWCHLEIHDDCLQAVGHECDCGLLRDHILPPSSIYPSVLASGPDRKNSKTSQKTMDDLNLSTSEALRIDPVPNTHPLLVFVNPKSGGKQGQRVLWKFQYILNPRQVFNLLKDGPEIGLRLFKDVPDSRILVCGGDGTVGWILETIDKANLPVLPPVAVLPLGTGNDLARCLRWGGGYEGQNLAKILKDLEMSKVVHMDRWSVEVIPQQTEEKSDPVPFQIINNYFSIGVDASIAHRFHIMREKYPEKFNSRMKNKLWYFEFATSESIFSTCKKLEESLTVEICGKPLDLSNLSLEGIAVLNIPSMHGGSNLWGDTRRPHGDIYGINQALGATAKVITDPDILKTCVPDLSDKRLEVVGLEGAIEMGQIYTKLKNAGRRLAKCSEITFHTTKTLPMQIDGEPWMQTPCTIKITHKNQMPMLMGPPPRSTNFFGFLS

[3] = target: human DGKζ (Homo sapiens (Human), UniProt Q13574); assay: DGKζ LIPGLO assay (extruded liposome substrate, ADP-Glo luminescence); format: biochemical
Chain of human DGKζ (Q13574 other isoform, or with tags, fused parts or gaps): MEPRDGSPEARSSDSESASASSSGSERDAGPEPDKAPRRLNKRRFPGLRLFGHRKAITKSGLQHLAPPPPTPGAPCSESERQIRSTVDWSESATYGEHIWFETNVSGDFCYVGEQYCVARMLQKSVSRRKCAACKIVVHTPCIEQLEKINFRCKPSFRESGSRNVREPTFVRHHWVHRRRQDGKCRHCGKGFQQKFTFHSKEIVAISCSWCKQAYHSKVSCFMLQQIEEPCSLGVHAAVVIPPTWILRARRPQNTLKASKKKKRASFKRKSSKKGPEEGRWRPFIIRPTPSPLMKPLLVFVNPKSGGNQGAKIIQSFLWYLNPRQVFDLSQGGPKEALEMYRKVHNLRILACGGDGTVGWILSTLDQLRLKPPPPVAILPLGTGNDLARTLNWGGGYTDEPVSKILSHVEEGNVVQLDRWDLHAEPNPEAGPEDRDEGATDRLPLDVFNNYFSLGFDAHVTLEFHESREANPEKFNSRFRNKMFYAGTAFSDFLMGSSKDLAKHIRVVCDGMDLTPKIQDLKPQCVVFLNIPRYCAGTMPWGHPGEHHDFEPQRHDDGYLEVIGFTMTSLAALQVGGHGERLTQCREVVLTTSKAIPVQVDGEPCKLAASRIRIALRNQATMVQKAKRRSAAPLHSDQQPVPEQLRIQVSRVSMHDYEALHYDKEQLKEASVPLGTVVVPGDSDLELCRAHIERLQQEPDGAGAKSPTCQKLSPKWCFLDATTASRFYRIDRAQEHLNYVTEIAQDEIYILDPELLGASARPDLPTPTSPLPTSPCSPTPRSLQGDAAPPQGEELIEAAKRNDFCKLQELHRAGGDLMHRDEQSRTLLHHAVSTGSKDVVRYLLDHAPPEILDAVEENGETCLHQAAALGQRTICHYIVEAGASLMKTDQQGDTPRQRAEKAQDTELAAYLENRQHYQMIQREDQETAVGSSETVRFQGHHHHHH

[4] = whole blood, normalized to 3 μM reference compound as 100% activation, read-out: IFN-γ Whole Blood Normalized EC50
[5] = liposome assay, read-out: DGK alpha LIPGLO IC50
[6] = liposome assay, read-out: DGK zeta LIPGLO IC50
[7] = Homo sapiens, whole blood, normalized to 3 μM reference compound as 100% activation, read-out: IFN-γ Whole Blood Normalized EC50

Compound	EC50 [1, 4] [nM]	IC50 [2, 5] [nM]	IC50 [3, 6] [nM]	EC50 ([1]; human whole blood, anti-CD3 plus anti-CD28 stimulation, 24 hours, read-out: IFN-γ Whole Blood EC50) [nM]	IC50 ([2]; liposome (LIPGLO) assay, read-out: DGK alpha (liposome assay) IC50) [nM]	IC50 ([3]; liposome (LIPGLO) assay, read-out: DGK zeta (liposome assay) IC50) [nM]	EC50 [1, 7] [nM]
CC[C@@H]1CN(c2nc(=O)n(C)c3ccc(C#N)nc23)[C@@H](C)CN1C(C)c1ccc2c(c1)OC(F)(F)O2 (single isomer, unassigned) [Example 72]	790	1500					
C[C@@H]1CN(c2nc(=O)n(C)c3ccc(C#N)nc23)[C@@H](C)CN1C(c1ccc(F)cc1)c1nc(C2CC2)no1 (single isomer, unassigned) [Example 106]	240	39	130				
CC(c1ccc(F)c(F)c1)N1C[C@H](C)N(c2nc(=O)n(C)c3ccc(C#N)nc23)C[C@H]1C (single isomer, unassigned) [Example 148]	570	260	100				
COC[C@@H]1CN(c2nc(=O)n(C)c3ccc(C#N)nc23)[C@@H](C)CN1C(C)c1ccc(C(F)(F)F)cc1 (single isomer, unassigned) [Example 175]	1690	980	830				
CC(c1ccc(OC(C)(C)C#N)cc1)N1C[C@H](C)N(c2nc(=O)n(C)c3ccc(C#N)nc23)C[C@H]1C (stereo partly drawn) [Example 376, 4-((2S,5R)-4-(1-(4-((2-cyanopropan-2-yl)oxy)phenyl)ethyl)-2,5-dimethylpiperazin-1-yl)-1-methyl-2-oxo-1,2-dihydropyrido[3,2-d]pyrimidine-6-carbonitrile]				58	30	97	
CC[C@H]1CN(C(C)c2ccc(OCC3CC3)cc2)[C@H](CC)CN1c1nc(=O)n(C)c2ccc(C#N)nc12 (single isomer, unassigned) [Example 24]	450	680	630				
CC[C@@H]1CN(c2nc(=O)n(C)c3ccc(C#N)nc23)[C@@H](C)CN1C(C)c1ccc2c(c1)OC(F)(F)O2 (single isomer, unassigned) [Example 71]	66	670	22				
CC[C@H]1CN(C(C)c2ccc(C(C)(C)C#N)cc2)[C@H](CC)CN1c1nc(=O)n(C)c2ccc(C#N)nc12 (stereo partly drawn) [Example 197, 4-((2S,5R)-4-(1-(4-(2-cyanopropan-2-yl)phenyl)ethyl)-2,5-diethylpiperazin-1-yl)-1-methyl-2-oxo-1,2-dihydropyrido[3,2-d]pyrimidine-6-carbonitrile]	310	1470	220				
CC[C@@H]1CN(c2nc(=O)n(C)c3ccc(C#N)nc23)[C@@H](C)CN1C(C)c1ccc(C#N)cc1 (single isomer, unassigned) [Example 60]	23	30	28				
CC[C@H]1CN(C(C)c2ccc(C3CC3)cc2)[C@H](CC)CN1c1nc(=O)n(C)c2ccc(C#N)nc12 (single isomer, unassigned) [Example 28]	2040	1570	2650				
CC[C@H]1CN(C(C)c2ccc(OCC3CC3)cc2F)[C@H](CC)CN1c1nc(=O)n(C)c2ccc(C#N)nc12 (single isomer, unassigned) [Example 33]	3830	2560	5930				
C[C@@H]1CN(c2nc(=O)n(C)c3ccc(C#N)nc23)[C@@H](C)CN1Cc1cc(F)c(F)c(F)c1 [Example 130, 4-((2S,5R)-2,5-dimethyl-4-(3,4,5-trifluorobenzyl)piperazin-1-yl)-1-methyl-2-oxo-1,2-dihydropyrido[3,2-d]pyrimidine-6-carbonitrile]		12400	960				4070
CC(c1ccc(F)cc1)N1C[C@H](C)N(c2nc(=O)n(C)c3ccc(C#N)nc23)C[C@H]1C (single isomer, unassigned) [Example 129]		820	1550				13200
COC[C@@H]1CN(c2nc(=O)n(C)c3ccc(C#N)nc23)[C@@H](C)CN1C(C)c1ccc(C(F)(F)F)cc1 (single isomer, unassigned) [Example 174]	140	590	140				
C[C@H]1CN(C(c2ccc(F)cc2)c2ccc(C(F)(F)F)cn2)[C@H](CO)CN1c1nc(=O)n(C)c2ccc(C#N)nc12 (single isomer, unassigned) [Example 182]	2530	430	2030				
CC[C@@H]1CN(c2nc(=O)n(C)c3ccc(C#N)nc23)[C@@H](C)CN1C(C)c1ccc(OCC2CC2)cc1F (single isomer, unassigned) [Example 69]	33	210	14				
CC[C@H]1CN(C(C)c2ccc(C(F)(F)F)nc2)[C@H](CC)CN1c1nc(=O)n(C)c2ccc(C#N)nc12 (single isomer, unassigned) [Example 45]	1040	310	510				

Compound	EC50 [1, 4] [nM]	IC50 [2, 5] [nM]	IC50 [3, 6] [nM]	EC50 ([1]; human whole blood, anti-CD3 plus anti-CD28 stimulation, 24 hours, read-out: IFN-γ Whole Blood EC50) [nM]	IC50 ([2]; liposome (LIPGLO) assay, read-out: DGK alpha (liposome assay) IC50) [nM]	IC50 ([3]; liposome (LIPGLO) assay, read-out: DGK zeta (liposome assay) IC50) [nM]	EC50 [1, 7] [nM]
CC[C@@H]1CN(c2nc(=O)n(C)c3ccc(C#N)nc23)[C@@H](C)CN1C(C)c1ccc(C(F)(F)F)cc1F (single isomer, unassigned) [Example 59]	500	300	260				
CC[C@@H]1CN(c2nc(=O)n(C)c3ccc(C#N)nc23)[C@@H](C)CN1C(C)c1ccc(OC(F)(F)F)cc1F (single isomer, unassigned) [Example 82]	530	1540	2450				
CC[C@H]1CN(C(c2ccc(F)cc2)c2cccc(C(F)(F)F)n2)[C@H](C)CN1c1nc(=O)n(C)c2ccc(C#N)nc12 (stereo partly drawn) [Example 121, 4-((2S,5R)-2-ethyl-4-((4-fluorophenyl)(6-(trifluoromethyl)pyridin-2-yl)methyl)-5-methylpiperazin-1-yl)-1-methyl-2-oxo-1,2-dihydropyrido[3,2-d]pyrimidine-6-carbonitrile]		1940	1650				
CC[C@H]1CN(C(C)c2ccc(C(F)(F)F)cc2F)[C@H](C)CN1c1nc(=O)n(C)c2ccc(C#N)nc12 (stereo partly drawn) [Example 118, 4-((2S,5R)-2-ethyl-4-(1-(2-fluoro-4-(trifluoromethyl)phenyl)ethyl)-5-methylpiperazin-1-yl)-1-methyl-2-oxo-1,2-dihydropyrido[3,2-d]pyrimidine-6-carbonitrile]		95	16				
CC[C@H]1CN(C(C)c2ccc(OC)cc2)[C@H](CC)CN1c1nc(=O)n(C)c2ccc(C#N)nc12 (single isomer, unassigned) [Example 16]		45	37				
CC[C@H]1CN(C(C)c2ccc(OC(F)(F)F)cc2)[C@H](CC)CN1c1nc(=O)n(C)c2ccc(C#N)nc12 (single isomer, unassigned) [Example 10]		370	970				
CC[C@H]1CN(C(C)c2ccc(OC(F)(F)F)cc2)[C@H](C)CN1c1nc(=O)n(C)c2ccc(C#N)nc12 (stereo partly drawn) [Example 122, 4-((2S,5R)-2-ethyl-5-methyl-4-(1-(4-(trifluoromethoxy)phenyl)ethyl)piperazin-1-yl)-1-methyl-2-oxo-1,2-dihydropyrido[3,2-d]pyrimidine-6-carbonitrile]		32	1960				
CC[C@H]1CN(C(C)c2ccc(OC(C)C)cc2)[C@H](CC)CN1c1nc(=O)n(C)c2ccc(C#N)nc12 (single isomer, unassigned) [Example 18]		30	25				
CC(c1ccc(OC(F)F)cc1)N1C[C@H](C)N(c2nc(=O)n(C)c3ccc(C#N)nc23)C[C@H]1C (single isomer, unassigned) [Example 156]		10	120				
CCC(c1ccc2c(c1)OC(F)(F)O2)N1C[C@H](C)N(c2nc(=O)n(C)c3ccc(C#N)nc23)C[C@H]1CC (single isomer, unassigned) [Example 80]		2160	1180				
CC[C@H]1CN(C(C)c2ccc(C(F)(F)F)cc2N2CCOCC2)[C@H](CC)CN1c1nc(=O)n(C)c2ccc(C#N)nc12 (stereo partly drawn) [Example 195, 4-((2S,5R)-2,5-diethyl-4-(1-(2-morpholino-4-(trifluoromethyl)phenyl)ethyl)piperazin-1-yl)-1-methyl-2-oxo-1,2-dihydropyrido[3,2-d]pyrimidine-6-carbonitrile]		125000	5070				
CC(c1ccc(F)cc1)N1C[C@H](C)N(c2nc(=O)n(C)c3ccc(C#N)nc23)C[C@H]1C (single isomer, unassigned) [Example 128]		26	110				
CC[C@@H]1CN(c2nc(=O)n(C)c3ccc(C#N)nc23)[C@@H](C)CN1C(c1ccc(F)cc1)c1nc(C2CC2)cs1 (single isomer, unassigned) [Example 50]		110	37				
CCC(c1ccc(OC(F)(F)F)cc1)N1C[C@H](C)N(c2nc(=O)n(C)c3ccc(C#N)nc23)C[C@H]1C (single isomer, unassigned) [Example 155]		250	750				
CCC(c1ccc(OC(F)(F)F)cc1F)N1C[C@H](CC)N(c2nc(=O)n(C)c3ccc(C#N)nc23)C[C@H]1CC (some centres unmarked) [Example 11]		5	60				
CC[C@@H]1CN(c2nc(=O)n(C)c3ccc(C#N)nc23)[C@@H](C)CN1C(C)c1ccc(OCC2CC2)cc1 (single isomer, unassigned) [Example 67]		210	33				
CC[C@H]1CN(C(C)c2ccc(OC(F)(F)F)cc2)[C@H](CC)CN1c1nc(=O)n(C)c2ccc(C#N)nc12 (single isomer, unassigned) [Example 9]		7	48				
